What all share (assay): NCI-60 cell line screen, 48 h
The subject of experiment [1] is HOP-18.
Experiment [2] relates to SNB-78.
Experiment [3] has as its system DMS-114.
Experiment [4] concerns M19-MEL.
The test system of experiment [5] is DLD-1.
For experiment [6], the system named is XF498.
The subject of experiment [7] is DMS-273.
The test system of experiment [8] is LXFL 529.
Experiment [9] deals with RXF 631.

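Briefly, cells in 96-well plates were exposed to five compound concentrations for 48 h, and endpoints were estimated by linear interpolation. GI50 = concentration required for 50% inhibition of growth.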 Active and inactive are the calls of the source. Rule as the data show it: active = GI50 up to about 1.1 µM and inactive = higher. Where only a bound is given, the exact number is not on record here.

Turning to `CCCCCCCCCCCC1CCCC(C)N1` (stereo unspecified), the GI50 is 87.9 µM (inactive) in [1]; 73.3 µM (inactive) in experiment [2]; 56.2 µM (inactive) in experiment [3]; 56.2 µM (inactive) in [4]; 24.5 µM (inactive) in experiment [5]; 47.4 µM (inactive) in experiment [6]. Further, in experiment [7], the GI50 is 65.2 µM (inactive).

As to `Cc1cc(N(CCC#N)CCC#N)ccc1/C=C(\NC(=O)/C=C/c1ccccc1)NC(=O)Nc1ccccc1C`, the GI50 was 51.5 µM (inactive) in experiment [2]; 47.6 µM (inactive) in experiment [8]; 89.7 µM (inactive) in experiment [3]; 84.1 µM (inactive) in experiment [9]; > 100 µM (inactive) in experiment [4]; 78.3 µM (inactive) in [5]. The GI50 in experiment [6] is > 10 µM (inactive); in [7], > 100 µM (inactive).

Turning to `O=C1C(Cl)N(c2c(Cl)cccc2Cl)C1c1c[nH]c2ccccc12` (stereo unspecified), the GI50 in experiment [8], in experiment [4], in experiment [5] and in [6] was > 100 µM (inactive) throughout.

Take `O=C(Cc1ccccc1)NN1C(=O)C(Cl)C1c1ccccc1` (stereo unspecified): the GI50 in experiment [1] is > 100 µM (inactive); in experiment [2] it was > 100 µM (inactive); in experiment [8], 20 µM (inactive); in [3], 33.9 µM (inactive); in experiment [4], > 100 µM (inactive); in experiment [5], > 100 µM (inactive). In addition, the GI50 in [6] is 24.6 µM (inactive).

For the compound `CC1=C(Oc2ccccc2)C(CCC(=O)O)c2c(O)cc(Cl)c(O)c21` (stereo unspecified), the GI50 in experiment [2], in [3], in experiment [9], in experiment [4], in experiment [5] and in [6] was > 100 µM (inactive) each time. Also, the GI50 in experiment [7] was > 100 µM (inactive).

Consider `COC(=O)c1cc(CNCCc2c[nH]c3ccccc23)on1`, for which the GI50 in [8] was > 100 µM (inactive); in experiment [3], > 100 µM (inactive); in experiment [9] it was > 100 µM (inactive); in experiment [4] it was > 100 µM (inactive); in experiment [5], > 100 µM (inactive); in [6], 23.1 µM (inactive). Moreover, the GI50 in experiment [7] is > 100 µM (inactive).

`COc1cc(CCc2ccc(OCCN(C)C)cc2)cc(OC)c1OC`: the GI50 was > 100 µM (inactive) in [1]; > 100 µM (inactive) in [2]; 77.6 µM (inactive) in experiment [8]; 47.8 µM (inactive) in experiment [3]; 88.7 µM (inactive) in experiment [9]; > 100 µM (inactive) in experiment [4]. In addition, the GI50 is > 100 µM (inactive) in experiment [5], 38.5 µM (inactive) in [6] and > 100 µM (inactive) in experiment [7].

Turning to `C[C@@]12CC[C@H]3[C@@H]4CCC(=O)N[C@@]4(C)CC[C@@H]3[C@@]1(C)CC[C@H](OC(=O)Cc1ccc(N(CCCl)CCCl)cc1)C2`, the GI50 in [1] was 18 µM (inactive); in experiment [2], 19.5 µM (inactive); in experiment [3], 15 µM (inactive); in experiment [4], 17.5 µM (inactive); in [5], 19.7 µM (inactive); in [7] it was 15.2 µM (inactive).

In the case of `CCN(CC)CCSc1nc2cccc([N+](=O)[O-])c2[nH]1`, the GI50 in experiment [2], in experiment [8], in experiment [3], in [9], in [4] and in experiment [6] was > 100 µM (inactive) throughout. Further, the GI50 in [7] was > 100 µM (inactive).

On to `NC(=O)c1ncn(C2OC(CO)C(O)C2O)c1NC(=S)NC(=O)c1ccccc1` (stereo unspecified), for which the GI50 in experiment [2], in experiment [8], in [3], in experiment [4], in experiment [5] and in experiment [7] was > 100 µM (inactive) throughout.

In the case of `Cn1c(=O)nc2n(-c3ccc(F)cc3)c3ccccc3nc-2c1=O`, the GI50 in [1] was 19.4 µM (inactive); in [2], 20 µM (inactive); in [8] it was 22.8 µM (inactive); in experiment [3] it was 12.8 µM (inactive); in experiment [4], 2.89 µM (inactive); in experiment [5] it was 19.5 µM (inactive). Moreover, the GI50 in experiment [6] was 19.3 µM (inactive); in experiment [7] it was 17 µM (inactive).

For the compound `Cn1c2c([N+](=O)[O-])[se]nc2c(=O)n1-c1ccc([N+](=O)[O-])cc1`, the GI50 in experiment [1] was 2.82 µM (inactive); in experiment [2] it was 1.99 µM (inactive); in experiment [8] it was 1.25 µM (inactive); in experiment [3], 0.254 µM (active); in [9], 1.5 µM (inactive); in experiment [5], 0.746 µM (active). In addition, the values for the GI50 in [6] and in [7] were 2.26 µM (inactive) and 2.5 µM (inactive), respectively.

Turning to `O=C(O)CCC(=O)N1c2ccccc2CC1c1c[nH]c2ccccc12` (stereo unspecified), the GI50 in experiment [1], in experiment [2], in [8], in experiment [3], in [4] and in [6] was > 100 µM (inactive) each time. Also, in experiment [7], the GI50 is > 100 µM (inactive).

For the origin of these results see ChEMBL document CHEMBL1201862, “PubChem BioAssay data set” (2004).
